Experimental data: patent US12370183B2, “Compositions and methods for treating malaria” (Rutgers, The State University of New Jersey, priority 2020, dated 2025)
Where two headings read alike, the source gives them in different places.

Key:
[1] = system: 3D7 strain of Plasmodium falciparum; assay: Potency in the 3D7 strain of Plasmodium falciparum (EC50); type: cell-based; conditions: Plasmodium falciparum
Excerpt: The present invention relates to methods of treating malaria with tetrahydrobenzonaphtyridine carboxanilide (TBN) derivatives and related pyrrolinones and hydrolysis products thereof. These compounds are active against Plasmodium falciparum strains that are resistant to multiple drugs currently on the market. The present invention further relates to novel compounds and pharmaceutical compositions comprising such compounds. The compounds have been synthesized and tested for their potency in the 3D7 strain of Plasmodium falciparum. Their cytotoxicity was also tested in the BJ human fibroblast line. No compounds show significant cytotoxicity.
(§1) A high-throughput screen performed against the Plasmodium parasite. About 8,000 compounds were screened. Each hit was tested against resistant P. falciparum variants K1, V1S, D10DD, ATP4 1247, and C2B. Potency against these assays assured that the chemotype acts through a mechanism distinct from that of halofantrine, chloroquine, mefloquine, pyrimethamine, proguanil, atovaquone, and (+)SJ733. The toxicity of the compounds was also measured by testing their lethality against a BJ cell line (human fibroblasts). No TBNs were toxic. A structure activity investigation was performed in order to improve the EC50 of the TBNs to the single-digit nanomolar range, as well as to increase the water solubility.
(§2) Substituents were installed at N−2 by using a variety of methods. Reductive alkylation (Abdel-Magid, A. F.; Mehrman, S. J. A Review on the Use of Sodium Triacetoxyborohydride in the Reductive Amination of Ketones and Aldehydes. Org. Process Res. Dev. 2006, 10 (5), 971-1031) was a dependable technique that produced over fifteen analogues. Conjugate additions and nucleophilic substitutions provided most of the others. A type of reductive alkylation that uses carboxylic acids instead of aldehydes (the Beller reduction) led to two analogues (Sorribes, I.; Junge, K.; Beller, M. Direct Catalytic N-Alkylation of Amines with Carboxylic Acids. J. Am. Chem. Soc. 2014, 136 (40), 14314-14319. Some of the compounds listed were synthesized through other means, or were derived from other TBNs. Compounds 66 and 128 were produced by the amidation of acids 132 and 133, which had the corresponding substitution already installed. TBNs 93, and 94 were produced from the Pfitzinger products formed from the condensation of isatin with (R)-1-(1-phenylethyl)piperidin-4-one (134) and (S)-1-(1-phenylethyl)piperidin-4-one (135), respectively.

[2] = system: resistant P. falciparum variant K1; assay: Potency against resistant P. falciparum variant K1 (EC50); type: cell-based; conditions: Plasmodium falciparum, K1, read-out: K1 EC50 (μM)
Protocol: as §1, §2

[3] = 3D7, read-out: 3D7 Mean EC50 (μM)
[4] = 3D7, read-out: 3D7 Mean EC50 of the TBN (μM)

Row | Structure (SMILES) | EC50 [1, 3] [µM] | EC50 [2] [µM] | also measured
1 | CC(c1ncccn1)N1CCc2nc3c(c(C(=O)Nc4ccc(F)c(F)c4)c2C1)CCCC3 (centres unmarked) [Compound 139, N-(3,4-Difluorophenyl)-2-(1-(pyrimidin-2-yl)ethyl)-1,2,3,4,6,7,8,9-octahydrobenzo[b][1,6]naphthyridine-10-carboxamide] | 0.849 ± 0.52 | 0.266 ± 0.0462 | EC50 [1, 4]: 0.453 ± 0.238 µM
2 | O=C(Nc1ccc(F)c(F)c1)c1c2c(nc3ccccc13)CCN(CCc1ccccn1)C2 [Compound 98, N-(3,4-Difluorophenyl)-2-(2-(pyridin-2-yl)ethyl)-1,2,3,4-tetrahydrobenzo[b][1,6]naphthyridine-10-carboxamide] | 0.329 ± 0.0232 |  | 
3 | CC(C)CN1CCc2nc3ccccc3c(C(=O)Nc3ccc(F)c(F)c3)c2C1 [Compound 95, N-(3,4-Difluorophenyl)-2-isobutyl-1,2,3,4-tetrahydrobenzo[b][1,6]naphthyridine-10-carboxamide] | 0.154 ± 0.162 | 0.121 | 
4 | COC(=O)CN1CCc2nc3ccccc3c(C(=O)Nc3ccc(F)c(F)c3)c2C1 [Compound 125, Methyl 2-(10-((3,4-difluorophenyl)carbamoyl)-3,4-dihydrobenzo[b][1,6]naphthyridin-2(1H)-yl)acetate] | 9.11 ± 7.61 |  | 
5 | CCOCCN1CCc2nc3ccccc3c(C(=O)Nc3ccc(F)c(F)c3)c2C1 [Compound 103, N-(3,4-Difluorophenyl)-2-(2-ethoxyethyl)-1,2,3,4-tetrahydrobenzo[b][1,6]naphthyridine-10-carboxamide] | 0.451 ± 0.416 | 0.0391 | 
6 | CCOCC(=O)N1CCc2nc3ccccc3c(C(=O)Nc3ccc(F)c(F)c3)c2C1 [Compound 119, N-(3,4-Difluorophenyl)-2-(2-ethoxyacetyl)-1,2,3,4-tetrahydrobenzo[b][1,6]naphthyridine-10-carboxamide] | 3.49 ± 0.831 |  | 
7 | O=C(Nc1ccc(F)c(F)c1)c1c2c(nc3ccccc13)CCN(Cc1ncccc1F)C2 [Compound 118, N-(3,4-difluorophenyl)-2-((3-fluoropyridin-2-yl)methyl)-1,2,3,4-tetrahydrobenzo[b][1,6]naphthyridine-10-carboxamide] | 3.41 ± 2.9 |  | 
8 | O=C(Nc1ccc(F)c(F)c1)c1c2c(nc3cc(Cl)ccc13)CCN(CCc1ccccc1)C2 [Compound 157, 7-Chloro-N-(3,4-difluorophenyl)-2-phenethyl-1,2,3,4-tetrahydrobenzo[b][1,6]naphthyridine-10-carboxamide] | 0.0179 ± 0.01 |  | 
9 | CN(C)CCCN1CCc2nc3ccccc3c(C(=O)Nc3ccc(F)c(F)c3)c2C1 [Compound 126, N-(3,4-Difluorophenyl)-2-(3-(dimethylamino)propyl)-1,2,3,4-tetrahydrobenzo[b][1,6]naphthyridine-10-carboxamide] | 9.46 ± 2.17 | > 19.2 | 
10 | O=C(Nc1ccc(F)c(F)c1)c1c2c(nc3ccccc13)CCN(Cc1cccc(F)c1)C2 [Compound 100, N-(3,4-Difluorophenyl)-2-(3-fluorobenzyl)-1,2,3,4-tetrahydrobenzo[b][1,6]naphthyridine-10-carboxamide] | 0.412 ± 0.291 | 0.161 | 
11 | CS(=O)(=O)CCN1CCc2nc3ccccc3c(C(=O)Nc3ccc(F)c(F)c3)c2C1 [Compound 130, N-(3,4-Difluorophenyl)-2-(2-(methylsulfonyl)ethyl)-1,2,3,4-tetrahydrobenzo[b][1,6]naphthyridine-10-carboxamide] | > 14.7 |  | 
12 | O=C(Nc1ccc(F)c(F)c1)c1c2c(nc3ccccc13)CCN(Cc1ccncc1)C2 [Compound 111, N-(3,4-Difluorophenyl)-2-(pyridin-4-ylmethyl)-1,2,3,4-tetrahydrobenzo[b][1,6]naphthyridine-10-carboxamide] | 0.983 ± 0.133 | 0.647 | 
13 | CCCCN1CCc2nc3ccccc3c(C(=O)Nc3ccc(F)c(F)c3)c2C1 [Compound 99, 2-Butyl-N-(3,4-difluorophenyl)-1,2,3,4-tetrahydrobenzo[b][1,6]naphthyridine-10-carboxamide] | 0.37 ± 0.376 | 0.102 | 
14 | O=C(Nc1ccc(F)c(F)c1)c1c2c(nc3c1CN(Cc1ccccc1)CC3)CCCC2 [Compound 137, 2-Benzyl-N-(3,4-difluorophenyl)-1,2,3,4,6,7,8,9-octahydrobenzo[b][1,6]naphthyridine-10-carboxamide] | 0.0949 ± 0.0266 | 0.279 | EC50 [1, 4]: > 3.49 µM
15 | Cn1ccc(CN2CCc3nc4ccccc4c(C(=O)Nc4ccc(F)c(F)c4)c3C2)n1 [Compound 114, N-(3,4-Difluorophenyl)-2-((1-methyl-1H-pyrazol-3-yl)methyl)-1,2,3,4-tetrahydrobenzo[b][1,6]naphthyridine-10-carboxamide] | 1.89 ± 0.817 |  | 
16 | O=C(Nc1ccc(F)c(F)c1)c1c2c(nc3ccccc13)CCN(CCN1C(=O)c3ccccc3C1=O)C2 [Compound 121, N-(3,4-Difluorophenyl)-2-(2-(1,3-dioxoisoindolin-2-yl)ethyl)-1,2,3,4-tetrahydrobenzo[b][1,6]naphthyridine-10-carboxamide] | 3.95 ± 1.07 |  | 
17 | NCCN1CCc2nc3ccccc3c(C(=O)Nc3ccc(F)c(F)c3)c2C1 [Compound 129, 2-(2-Aminoethyl)-N-(3,4-difluorophenyl)-1,2,3,4-tetrahydrobenzo[b][1,6]naphthyridine-10-carboxamide] | 14.5 ± 4.73 | 9.46 ± 0.982 | 
18 | O=C(Nc1ccc(F)c(F)c1)c1c2c(nc3ccccc13)CCN(CCc1ccccc1)C2 [Compound 91, N-(3,4-Difluorophenyl)-2-phenethyl-1,2,3,4-tetrahydrobenzo[b][1,6]naphthyridine-10-carboxamide] | 0.117 ± 0.102 | 0.0839 | 
19 | CC(=O)O[C@H]1CO[C@H]2[C@@H]1OC[C@@H]2Oc1cccc(NC(=O)c2c3c(nc4ccccc24)CCN(CCc2ccccc2)C3)c1 [Compound 147, (3S,3aR,6S,6aR)-6-(3-(2-Phenethyl-1,2,3,4-tetrahydrobenzo[b][1,6]naphthyridine-10-carboxamido)phenoxy)hexahydrofuro[3,2-b]furan-3-yl acetate] |  |  | EC50 ([1]; 3D7, read-out: potency (EC50)): 3.87 µM
20 | CCN1CCc2nc3ccccc3c(C(=O)Nc3ccc(F)c(F)c3)c2C1 [Compound 128, N-(3,4-Difluorophenyl)-2-ethyl-1,2,3,4-tetrahydrobenzo[b][1,6]naphthyridine-10-carboxamide] | > 12.2 |  | 
21 | Cn1ccnc1CN1CCc2nc3ccccc3c(C(=O)Nc3ccc(F)c(F)c3)c2C1 [Compound 127, N-(3,4-Difluorophenyl)-2-((1-methyl-1H-imidazol-2-yl)methyl)-1,2,3,4-tetrahydrobenzo[b][1,6]naphthyridine-10-carboxamide] | 10.1 ± 6.39 |  | 
22 | O=C(Nc1ccc(F)c(F)c1)c1c2c(nc3ccccc13)CCN(Cc1cncc(F)c1)C2 [Compound 115, N-(3,4-Difluorophenyl)-2-((5-fluoropyridin-3-yl)methyl)-1,2,3,4-tetrahydrobenzo[b][1,6]naphthyridine-10-carboxamide] | 1.96 ± 2.34 |  | 
23 | O=C(Nc1ccc(F)c(F)c1)c1c2c(nc3ccccc13)CCN(CC(F)(F)F)C2 [Compound 123, N-(3,4-Difluorophenyl)-2-(2,2,2-trifluoroethyl)-1,2,3,4-tetrahydrobenzo[b][1,6]naphthyridine-10-carboxamide] | 7.69 ± 8.61 |  | 
24 | O=C1c2c3c(nc4cc(Cl)ccc24)CCN(CCc2ccccc2)C3N1c1ccc(F)c(F)c1 (centres unmarked) [Compound 172, 8-Chloro-2-(3,4-difluorophenyl)-3-phenethyl-2a,3,4,5-tetrahydrobenzo[b]pyrrolo[4,3,2-de][1,6]naphthyridin-1(2H)-one] | 0.0071 ± 0.000461 |  | EC50 ([1]; 3D7): 0.0071 µM
25 | Cn1cnc(CN2CCc3nc4ccccc4c(C(=O)Nc4ccc(F)c(F)c4)c3C2)c1 [Compound 117, N-(3,4-Difluorophenyl)-2-((1-methyl-1H-imidazol-4-yl)methyl)-1,2,3,4-tetrahydrobenzo[b][1,6]naphthyridine-10-carboxamide] | 2.4 ± 1.39 |  | 
26 | O=C(Nc1ccc(F)c(F)c1)c1c2c(nc3ccccc13)CCNC2 [Compound 88, N-(3,4-Difluorophenyl)-1,2,3,4-tetrahydrobenzo[b][1,6]naphthyridine-10-carboxamide] | 10.3 ± 10.2 |  | 
27 | O=C(Nc1ccc(F)c(F)c1)c1c2c(nc3ccc(Cl)cc13)CCN(CCc1ccccc1)C2 [Compound 158, 8-Chloro-N-(3,4-difluorophenyl)-2-phenethyl-1,2,3,4-tetrahydrobenzo[b][1,6]naphthyridine-10-carboxamide] | 0.0153 ± 0.00774 |  | 
28 | CC(C)(C)OC(=O)N1CCC(N2CCc3nc4ccccc4c(C(=O)Nc4ccc(F)c(F)c4)c3C2)CC1 [Compound 89, tert-Butyl 4-(10-((3,4-difluorophenyl)carbamoyl)-3,4-dihydrobenzo[b][1,6]naphthyridin-2(1H)-yl)piperidine-1-carboxylate] | 0.0257 ± 0.00583 |  | 
